# Experimental data taken from patent publication US20090042726A1, “Novel Herbicides” (SYNGENTA LIMITED, priority 2005, published 2009).
# Tests used:
# [1] = test system: Monocotyledonous and dicotyledonous test plants; experiment: Herbicidal action, application pre-emergence (Example B1); type: in vivo; design: key: 10=total damage to plant; 0=no damage to plant; details: 1000 g/ha, evaluated after 9 or 13 days; for AGSTE herbicidal action (damage score 0-10): Agrostis-tenius; for AMARE herbicidal action (damage score 0-10): Amaranthus retroflexus; for DIGSA herbicidal action (damage score 0-10): Digitaria sanguinalis; for POATR herbicidal action (damage score 0-10): Poa trivialis; for SETIT herbicidal action (damage score 0-10): Setaria italica
# Outline: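 Seeds sown in sterilised standard soil were sprayed one day after sowing (pre-emergence) with 1000 mg/l active ingredient in aqueous solution containing 10% DMSO. Plants were kept in a climatic chamber at 24/19° C. day/night after application. Damage was scored 0 (none) to 10 (total) after 9 or 13 days.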
Structure (SMILES),AGSTE herbicidal action (damage score 0-10) [1],AMARE herbicidal action (damage score 0-10) [1],DIGSA herbicidal action (damage score 0-10) [1],POATR herbicidal action (damage score 0-10) [1],melting point,SETIT herbicidal action (damage score 0-10) [1]
"Cc1nc(C(Cl)S(=O)(=O)C2=NOC(C)(C)C2F)n(C)n1 (racemic) [8.05, 3-[chloro-(1,3-dimethyl-1H-[1,2,4]triazol-5-yl)-methane-sulfonyl]-4-fluoro-5,5-dimethyl-4,5-dihydro-isoxazole]",10,10,9,8,140 to 141 °C,
"Cc1nc(CS(=O)(=O)C2=NOC(C)(C)C2F)n(C)n1 (stereo not shown) [8.04, 3-[(1,3-dimethyl-1H-[1,2,4]-triazol-5-yl)-methanesulfonyl]-4-fluoro-5,5-dimethyl-4,5-dihydro-isoxazole]",,,,,182 to 184 °C,
"CC1(C)ON=C(S(=O)(=O)C(F)(F)c2c(F)cccc2F)C1F (stereo not shown) [Compound No. 1.18, 3-[(2,6-difluoro-phenyl)-difluoro-methanesulfonyl]-4-fluoro-5,5-dimethyl-4,5-dihydro-isoxazole]",10,10,10,8,115 to 116 °C,9
"Cn1nc(C(F)(F)F)c(CSC2=NOC(C)(C)C2F)c1OCC(F)(F)F (stereo not shown) [Compound No. 2.07, 4-fluoro-5,5-dimethyl-3-[1-methyl-5-(2,2,2-trifluoro-ethoxy)-3-trifluoromethyl-1H-pyrazol-4-ylmethylsulfanyl]-4,5-dihydro-isoxazole]",,,,,50 to 51 °C,
"Cn1nc(C(F)(F)F)c(CS(=O)(=O)C2=NOC(C)(C)C2Cl)c1OCC(F)(F)F (stereo not shown) [Compound No. 2.15, 4-chloro-5,5-dimethyl-3-[1-methyl-5-(2,2,2-trifluoro-ethoxy)-3-trifluoromethyl-1H-pyrazol-4-ylmethylsulfonyl]-4,5-dihydro-isoxazole]",10,8,8,10,111 to 112 °C,6
Cc1nn(C)nc1CSC1=NOC(C)(C)C1F (stereo not shown) [Compound No. 7.01],10,0,8,0,,8
CC1(C)ON=C(SCc2nn(CC3CCC3)nc2C(F)(F)F)C1F (stereo not shown) [Compound No. 7.15],8,9,9,0,,
COCCn1nc(CSC2=NOC(C)(C)C2F)c(C(F)(F)F)n1 (stereo not shown) [Compound No. 7.18],7,8,8,0,,
CCc1nn(C)nc1CSC1=NOC(C)(C)C1F (stereo not shown) [Compound No. 7.31],9,0,7,0,,
CCn1ncc(CSC2=NOC(C)(C)C2F)n1 (stereo not shown) [Compound No. 7.34],9,6,8,8,,
